Measurements reported in the NIST ThermoML archive (doi:10.1021/acs.jced.6b00536).
Numbers after ± are expanded uncertainties.

Test: xn = mol fraction of the nth substance listed
Conditions: Gas, Frequency=0.05 MHz, Single path-length method, x2 = 0.056

SMILES: FC(F)(F)C(F)(F)C(F)(F)F [octafluoropropane] + FC(F)(F)C(F)(F)F
- speed of sound (252.6 K, 87.5 kPa): 107.26 ± 0.1 m/s
- speed of sound (252.6 K, 102.5 kPa): 106.66 ± 0.1 m/s
- speed of sound (252.6 K, 119.8 kPa): 106.02 ± 0.1 m/s
- speed of sound (252.6 K, 143.2 kPa): 105.14 ± 0.1 m/s
- speed of sound (252.6 K, 173.7 kPa): 103.91 ± 0.1 m/s
- speed of sound (252.6 K, 201.7 kPa): 102.77 ± 0.1 m/s
- speed of sound (257.7 K, 88.9 kPa): 108.41 ± 0.1 m/s
- speed of sound (257.7 K, 104.4 kPa): 107.85 ± 0.1 m/s
- speed of sound (257.7 K, 122.1 kPa): 107.22 ± 0.1 m/s
- speed of sound (257.7 K, 146.2 kPa): 106.37 ± 0.1 m/s
- speed of sound (257.7 K, 177.3 kPa): 105.18 ± 0.1 m/s
- speed of sound (257.7 K, 206.4 kPa): 104.1 ± 0.1 m/s
- speed of sound (257.7 K, 234.4 kPa): 102.97 ± 0.1 m/s
- speed of sound (262.8 K, 90.4 kPa): 109.57 ± 0.1 m/s
- speed of sound (262.8 K, 106.6 kPa): 109.02 ± 0.1 m/s
- speed of sound (262.8 K, 124.5 kPa): 108.41 ± 0.1 m/s
- speed of sound (262.8 K, 148.9 kPa): 107.58 ± 0.1 m/s
- speed of sound (262.8 K, 180.9 kPa): 106.46 ± 0.1 m/s
- speed of sound (262.8 K, 210.8 kPa): 105.41 ± 0.1 m/s
- speed of sound (262.8 K, 239.7 kPa): 104.33 ± 0.1 m/s
- speed of sound (262.8 K, 276.7 kPa): 102.88 ± 0.1 m/s
- speed of sound (267.9 K, 91.9 kPa): 110.71 ± 0.1 m/s
- speed of sound (267.9 K, 108.6 kPa): 110.16 ± 0.1 m/s
- speed of sound (267.9 K, 126.8 kPa): 109.58 ± 0.1 m/s
- speed of sound (267.9 K, 151.8 kPa): 108.79 ± 0.1 m/s
- speed of sound (267.9 K, 184.5 kPa): 107.7 ± 0.1 m/s
- speed of sound (267.9 K, 215.2 kPa): 106.69 ± 0.1 m/s
- speed of sound (267.9 K, 245.1 kPa): 105.66 ± 0.1 m/s
- speed of sound (267.9 K, 283.1 kPa): 104.27 ± 0.1 m/s
- speed of sound (273.1 K, 93.6 kPa): 111.83 ± 0.1 m/s
- speed of sound (273.1 K, 110.7 kPa): 111.31 ± 0.1 m/s
- speed of sound (273.1 K, 129.5 kPa): 110.76 ± 0.1 m/s
- speed of sound (273.1 K, 154.8 kPa): 109.99 ± 0.1 m/s
- speed of sound (273.1 K, 188.5 kPa): 108.94 ± 0.1 m/s
- speed of sound (273.1 K, 220.5 kPa): 107.96 ± 0.1 m/s
- speed of sound (273.1 K, 249.8 kPa): 106.97 ± 0.1 m/s
- speed of sound (273.1 K, 290.4 kPa): 105.61 ± 0.1 m/s
- speed of sound (278.2 K, 95.1 kPa): 112.94 ± 0.1 m/s
- speed of sound (278.2 K, 112.5 kPa): 112.44 ± 0.1 m/s
- speed of sound (278.2 K, 131.9 kPa): 111.89 ± 0.1 m/s
- speed of sound (278.2 K, 157.6 kPa): 111.15 ± 0.1 m/s
- speed of sound (278.2 K, 192.1 kPa): 110.13 ± 0.1 m/s
- speed of sound (278.2 K, 224.8 kPa): 109.21 ± 0.1 m/s
- speed of sound (278.2 K, 255 kPa): 108.24 ± 0.1 m/s
- speed of sound (278.2 K, 296.7 kPa): 106.96 ± 0.1 m/s
- speed of sound (283.2 K, 96.7 kPa): 114.02 ± 0.09 m/s
- speed of sound (283.2 K, 114.4 kPa): 113.54 ± 0.09 m/s
- speed of sound (283.2 K, 134 kPa): 113.01 ± 0.1 m/s
- speed of sound (283.2 K, 160.5 kPa): 112.31 ± 0.1 m/s
- speed of sound (283.2 K, 195.7 kPa): 111.31 ± 0.1 m/s
- speed of sound (283.2 K, 229.1 kPa): 110.42 ± 0.1 m/s
- speed of sound (283.2 K, 260.1 kPa): 109.49 ± 0.1 m/s
- speed of sound (283.2 K, 303 kPa): 108.25 ± 0.1 m/s
- speed of sound (288.3 K, 98.2 kPa): 115.1 ± 0.09 m/s
- speed of sound (288.3 K, 116.5 kPa): 114.63 ± 0.09 m/s
- speed of sound (288.3 K, 136.2 kPa): 114.12 ± 0.09 m/s
- speed of sound (288.3 K, 163.5 kPa): 113.43 ± 0.1 m/s
- speed of sound (288.3 K, 199.4 kPa): 112.48 ± 0.1 m/s
- speed of sound (288.3 K, 233.4 kPa): 111.61 ± 0.1 m/s
- speed of sound (288.3 K, 265.3 kPa): 110.72 ± 0.1 m/s
- speed of sound (288.3 K, 309.2 kPa): 109.53 ± 0.1 m/s
- speed of sound (293.3 K, 100.1 kPa): 116.16 ± 0.09 m/s
- speed of sound (293.3 K, 118.3 kPa): 115.7 ± 0.09 m/s
- speed of sound (293.3 K, 118.5 kPa): 115.72 ± 0.09 m/s
- speed of sound (293.3 K, 138.4 kPa): 115.2 ± 0.09 m/s
- speed of sound (293.3 K, 138.6 kPa): 115.22 ± 0.09 m/s
- speed of sound (293.3 K, 166.2 kPa): 114.54 ± 0.09 m/s
- speed of sound (293.3 K, 166.5 kPa): 114.55 ± 0.09 m/s
- speed of sound (293.3 K, 203 kPa): 113.61 ± 0.1 m/s
- speed of sound (293.3 K, 203.4 kPa): 113.63 ± 0.09 m/s
- speed of sound (293.3 K, 237.8 kPa): 112.79 ± 0.1 m/s
- speed of sound (293.3 K, 270.3 kPa): 111.92 ± 0.09 m/s
- speed of sound (293.3 K, 271.3 kPa): 111.92 ± 0.09 m/s
- speed of sound (293.3 K, 315.4 kPa): 110.77 ± 0.1 m/s
- speed of sound (298.4 K, 101.4 kPa): 117.22 ± 0.09 m/s
- speed of sound (298.4 K, 120.3 kPa): 116.79 ± 0.09 m/s
- speed of sound (298.4 K, 140.7 kPa): 116.3 ± 0.09 m/s
- speed of sound (298.4 K, 169.3 kPa): 115.65 ± 0.09 m/s
- speed of sound (298.4 K, 206.9 kPa): 114.77 ± 0.09 m/s
- speed of sound (298.4 K, 242.3 kPa): 113.97 ± 0.1 m/s
- speed of sound (298.4 K, 275.6 kPa): 113.13 ± 0.1 m/s
- speed of sound (298.4 K, 321.7 kPa): 112.02 ± 0.1 m/s
- speed of sound (303.4 K, 102.9 kPa): 118.27 ± 0.09 m/s
- speed of sound (303.4 K, 122.2 kPa): 117.85 ± 0.09 m/s
- speed of sound (303.4 K, 143.1 kPa): 117.38 ± 0.09 m/s
- speed of sound (303.4 K, 172.2 kPa): 116.75 ± 0.09 m/s
- speed of sound (303.4 K, 210.6 kPa): 115.9 ± 0.09 m/s
- speed of sound (303.4 K, 246.6 kPa): 115.1 ± 0.09 m/s
- speed of sound (303.4 K, 280.7 kPa): 114.31 ± 0.1 m/s
- speed of sound (303.4 K, 327.8 kPa): 113.24 ± 0.1 m/s
- speed of sound (308.5 K, 104.4 kPa): 119.31 ± 0.09 m/s
- speed of sound (308.5 K, 124.1 kPa): 118.88 ± 0.09 m/s
- speed of sound (308.5 K, 145.4 kPa): 118.44 ± 0.09 m/s
- speed of sound (308.5 K, 175.2 kPa): 117.83 ± 0.09 m/s
- speed of sound (308.5 K, 214.1 kPa): 117 ± 0.09 m/s
- speed of sound (308.5 K, 251 kPa): 116.24 ± 0.09 m/s
- speed of sound (308.5 K, 285.8 kPa): 115.47 ± 0.09 m/s
- speed of sound (308.5 K, 334 kPa): 114.43 ± 0.1 m/s
- speed of sound (313.5 K, 105.9 kPa): 120.35 ± 0.09 m/s
- speed of sound (313.5 K, 126 kPa): 119.93 ± 0.09 m/s
- speed of sound (313.5 K, 147.7 kPa): 119.48 ± 0.09 m/s
- speed of sound (313.5 K, 177.9 kPa): 118.9 ± 0.09 m/s
- speed of sound (313.5 K, 217.6 kPa): 118.09 ± 0.09 m/s
- speed of sound (313.5 K, 255.2 kPa): 117.36 ± 0.09 m/s
- speed of sound (313.5 K, 290.9 kPa): 116.61 ± 0.09 m/s
- speed of sound (313.5 K, 340 kPa): 115.6 ± 0.1 m/s
- speed of sound (318.5 K, 107.5 kPa): 121.35 ± 0.09 m/s
- speed of sound (318.5 K, 127.9 kPa): 120.96 ± 0.09 m/s
- speed of sound (318.5 K, 150.1 kPa): 120.53 ± 0.09 m/s
- speed of sound (318.5 K, 180.8 kPa): 119.96 ± 0.09 m/s
- speed of sound (318.5 K, 221.2 kPa): 119.17 ± 0.09 m/s
- speed of sound (318.5 K, 259.7 kPa): 118.47 ± 0.09 m/s
- speed of sound (318.5 K, 296 kPa): 117.74 ± 0.09 m/s
- speed of sound (318.5 K, 346.1 kPa): 116.75 ± 0.1 m/s
- speed of sound (323.5 K, 109.2 kPa): 122.36 ± 0.09 m/s
- speed of sound (323.5 K, 130 kPa): 121.97 ± 0.09 m/s
- speed of sound (323.5 K, 152.5 kPa): 121.55 ± 0.09 m/s
- speed of sound (323.5 K, 183.8 kPa): 121 ± 0.09 m/s
- speed of sound (323.5 K, 225 kPa): 120.25 ± 0.09 m/s
- speed of sound (323.5 K, 264.1 kPa): 119.56 ± 0.09 m/s
- speed of sound (323.5 K, 301.1 kPa): 118.85 ± 0.09 m/s
- speed of sound (323.5 K, 352.2 kPa): 117.91 ± 0.09 m/s
